Calls of active or inactive are those of the source. No rule for the calls is given here.
Legend:
[1] = system: S. cerevisiae vps1Δ apl2Δ growth inhibition, dose response; assay: growth inhibition of vps1Δ apl2Δ yeast, dose response, post-Golgi transport modulator project, S. cerevisiae, background strain comparison (AID 788)
[2] = system: S. cerevisiae wild-type background strain growth inhibition; assay: as above; settings: S. cerevisiae vps1Δ apl2Δ growth inhibition, dose response; measured here: wild-type background strain growth

Row | Compound | IC50 [1] | IC50 [2]
1 | CCN1CCN(c2c(Cl)cccc2NC(=O)c2ccc(Br)o2)CC1 | > 10 µM (inactive) | > 10 µM
2 | C=C(C)C1CC=C(CN2CCC(C(=O)OCC)CC2)CC1 (stereo unspecified) | 13.5 µM | > 10 µM
3 | Cc1ccc(C)c(NS(=O)(=O)c2cc(C(=O)N3CCc4ccccc4C3)ccc2Cl)c1 | 8.09 µM (inactive) | 6.88 µM
4 | CCOC(=O)c1ccc(NC(=O)c2cn(-c3ccccc3)nc2-c2ccncc2)cc1 | 19.1 µM (inactive) | 11.5 µM
5 | Cc1cc(N2C(=O)C3CCCN3C2c2sccc2C)no1 (stereo unspecified) | > 10 µM (inactive) | > 10 µM
6 | Cc1ccc(-n2cc3c(-c4cccc(Br)c4)nnc(C)c3n2)cc1 | 1.94 µM | 13.5 µM
7 | Cc1ccc(/C=N/n2cnc3sc(-c4ccccc4)cc3c2=O)o1 | > 10 µM (inactive) | > 10 µM
8 | CCn1c(=O)[nH]c2cc(C(=O)N3CCN(c4ccccc4)CC3)ccc2c1=O | > 10 µM (inactive) | > 10 µM
9 | CCN(CC)c1nc2cc(OC)ccc2cc1C#N | > 10 µM (inactive) | > 10 µM
10 | O=C(NCCSCc1ccc(Cl)cc1Cl)c1ccc(CN2CCOCC2)cc1 | 13.5 µM | > 10 µM
11 | O=[N+]([O-])c1cc(C(F)(F)F)ccc1N/N=C/c1cc2ccccc2nc1Cl | > 10 µM (inactive) | > 10 µM
12 | Nc1c(C(=O)OCC2CCCO2)c2nc3ccccc3nc2n1-c1ccc2c(c1)OCCO2 (stereo unspecified) | > 10 µM (inactive) | > 10 µM
13 | O=S(=O)(NCC(c1cccnc1)N1CCN(c2ccccc2)CC1)c1cccs1 (stereo unspecified) | 23 µM | > 10 µM
14 | O=C(NCC(=O)N(c1cccnc1)C(C(=O)NCc1ccco1)c1ccccc1)c1ccco1 (stereo unspecified) | > 10 µM (inactive) | > 10 µM
15 | Clc1ccc(-c2cnc(Oc3ccccc3)nc2)cc1 | > 10 µM (inactive) | > 10 µM
16 | CCc1cc(=O)oc2cc(C)c(CN3CCCC(C)C3)c(O)c12 (stereo unspecified) | > 10 µM (inactive) | > 10 µM
17 | CC1CN(CCCCOc2ccc(C(C)C)cc2)CC(C)O1 (stereo unspecified) | 0.703 µM | > 10 µM
18 | CC(=O)Nc1ccccc1NS(=O)(=O)c1ccc(Cl)cc1 | > 10 µM (inactive) | > 10 µM
19 | CCOC(=O)C(NC(C)=O)(Nc1ccc(S(=O)(=O)Nc2onc(C)c2C)cc1)C(F)(F)F (stereo unspecified) | > 10 µM (inactive) | > 10 µM
20 | Cc1cccc(N2CCN(CC(=O)Nc3nccs3)CC2)c1C | > 10 µM (inactive) | > 10 µM
21 | COCCCNc1ccnc2c(Cl)cccc12 | > 10 µM (inactive) | > 10 µM

Row | Compound | IC50 [1] | IC50 [2]
22 | COc1ccc(C(=O)c2c(C(F)(F)F)oc3c2C(=O)c2ccccc2C3=O)cc1 | 22.7 µM (inactive) | 2.32 µM
23 | Clc1ccc2[nH]c3c(NCC4CCCO4)ncnc3c2c1 (stereo unspecified) | > 10 µM (inactive) | > 10 µM
24 | COc1ccc(Cl)cc1NC(=O)C(C)N1CCN(C/C=C/c2ccccc2)CC1 (stereo unspecified) | 9.01 µM | 15 µM
25 | COCCNc1cc(C)nc2c3c(C)cc(C)nc3nn12 | > 10 µM (inactive) | > 10 µM
26 | O=C1OCC2=C1C(c1ccc(F)cc1)Sc1ccccc1N2 (stereo unspecified) | 23.9 µM | > 10 µM
27 | Cc1nn(-c2ccccn2)c(C)c1Oc1ccccc1O | > 10 µM (inactive) | > 10 µM
28 | O=C(OCn1ncc(Br)c(Br)c1=O)c1ccc(F)cc1 | 5.12 µM | 5.38 µM
29 | CN1C(=O)/C(=C/c2cccn2-c2ccc3ccccc3c2)C(=O)NC1=S | 10.4 µM (inactive) | 6.58 µM
30 | Cc1cccc(-c2c3c(=O)n(C)c(=O)n(C)c3cn2C2CCCCC2)c1 | > 10 µM (inactive) | > 10 µM
31 | Cc1nn(Cc2cccc(C(=O)NC(C)c3ccc(C(C)(C)C)cc3)c2)c(C)c1[N+](=O)[O-] (stereo unspecified) | > 10 µM (inactive) | > 10 µM
32 | CSc1ncccc1C(=O)OCC(=O)N1CCOCC1 | > 10 µM (inactive) | > 10 µM
33 | CC1CN(CC(O)COc2ccc(C(C)C)cc2)CC(C)O1 (stereo unspecified) | 15.2 µM | > 10 µM
34 | O=C(Nc1nnc(-c2ccccc2)o1)c1ccc(Cl)cc1 | 2.46 µM (inactive) | 0.65 µM
35 | CCSc1nnc(NC(=O)NCC(F)(F)F)s1 | > 10 µM (inactive) | > 10 µM
36 | COc1ccc2oc(=O)c(-c3nnc(NCc4ccco4)s3)cc2c1 | > 10 µM (inactive) | > 10 µM
37 | CCOC(=O)c1ccc(NC(=O)c2ccc(CN3CCOCC3)cc2)cc1 | 24.9 µM | > 10 µM
38 | O=Cc1cc2ccccc2nc1SCc1ccc(Cl)cc1 | > 10 µM (inactive) | > 10 µM
39 | NC(=O)c1c(NC(=O)CN2C(=O)CCC2=O)sc2c1CCCCC2 | > 10 µM (inactive) | > 10 µM
40 | O=C(CCC(=O)OCC(=O)c1ccc(F)cc1)NC1CCCCC1 | > 10 µM (inactive) | > 10 µM
41 | COc1ccccc1N1CCN(Cc2ccccc2F)CC1 | > 10 µM (inactive) | > 10 µM
42 | COc1ccc2nc(NCCCNC(=O)c3cc(OC)c(OC)c(OC)c3)c(C#N)cc2c1 | > 10 µM (inactive) | > 10 µM

Row | Compound | IC50 [1] | IC50 [2]
43 | CCCCCCCCNc1ncnc2ccccc12 | > 10 µM (inactive) | 14.8 µM
44 | NC(=O)c1ccsc1NC(=O)c1nc(-c2ccccc2)n(-c2ccccc2)n1 | > 10 µM (inactive) | > 10 µM
45 | O=C(O)c1cc(-c2ccc(/C=N/Nc3ccc(Cl)cc3)o2)ccc1Cl | 10.9 µM | 16.4 µM
46 | COc1ccc(N2CCN(c3oc(-c4ccco4)nc3C#N)CC2)cc1 | > 10 µM (inactive) | > 10 µM
47 | O=C(COc1ccc(Cl)cc1)Nc1ccc(N2CCN(C(=O)c3ccco3)CC2)cc1 | > 10 µM (inactive) | > 10 µM
48 | O=C(C1CCN(S(=O)(=O)c2cccs2)CC1)N1CCCCCC1 | > 10 µM (inactive) | > 10 µM
49 | CN1CCN(CCCNC(=O)Cn2nc(-c3ccccc3)ccc2=O)CC1 | > 10 µM (inactive) | > 10 µM
50 | COc1cc2[nH]c(=S)n(CCCN3CCOCC3)c(=O)c2cc1OC | > 10 µM (inactive) | > 10 µM
51 | O=C(OCn1ncc(Cl)c(Cl)c1=O)c1ccc(C(F)(F)F)cc1 | 23.2 µM | > 10 µM
52 | Cc1ccc(S(=O)(=O)NC(CC(C)C)C(=O)Oc2ccc3c4c(c(=O)oc3c2)CCC4)cc1 (stereo unspecified) | > 10 µM (inactive) | > 10 µM
53 | CN1/C(=C/C2CC(=O)NC2=O)C(C)(C)c2ccccc21 (stereo unspecified) | > 10 µM (inactive) | > 10 µM
54 | Cc1cc(=O)[nH]c(SCC(=O)c2ccc(C)c(C)c2)n1 | 2.13 µM | 2.31 µM
55 | CCC(C)(C)NC(=O)CN(C(=O)CCC(=O)Nc1ccccn1)c1ccc(F)c(Cl)c1 | > 10 µM (inactive) | > 10 µM
56 | Cc1ccc(C(C)C)c(OCCCN2CC(C)OC(C)C2)c1 (stereo unspecified) | 9.78 µM | > 10 µM
57 | Cc1ccc(S(=O)(=O)c2c(C)nn(C(C)(C)C)c2OC(=O)c2ccc(Br)o2)cc1 | > 10 µM (inactive) | > 10 µM
58 | Cc1ccc2cc(CN(CCO)Cc3nnnn3Cc3ccc(F)cc3)c(=O)[nH]c2c1 | > 10 µM (inactive) | > 10 µM
59 | c1ccc(COc2ccc(CN3CCN(c4ccccn4)CC3)cc2)cc1 | > 10 µM (inactive) | > 10 µM
60 | Cc1cc(C)n2nc(C(=O)NCc3ccccc3)cc2n1 | > 10 µM (inactive) | > 10 µM
61 | Cc1ccc(SC(C)C(=O)Nc2ncn[nH]2)cc1 (stereo unspecified) | > 10 µM (inactive) | > 10 µM
62 | O=C(c1ccco1)N1CCN=C1SCc1cccnc1 | > 10 µM (inactive) | > 10 µM
63 | CCCCCOc1ccc(Cl)cc1CN1CCOCC1 | 20.6 µM | > 10 µM

Row | Compound | IC50 [1] | IC50 [2]
64 | CCC(=O)N(CCO)Cc1cc2ccc(C)c(C)c2[nH]c1=O | > 10 µM (inactive) | > 10 µM
65 | Cc1sc(NC(=O)c2ccco2)c(C(c2cccnc2)N2CCC(C)CC2)c1C (stereo unspecified) | 9.99 µM (inactive) | 5.77 µM
66 | CCCCS(=O)(=O)/C=C\C=C/S(=O)(=O)CCCC | 12.1 µM | 13.9 µM
67 | O=C(O)Cn1c(SCCOc2ccccc2F)nc2ccccc21 | > 10 µM (inactive) | > 10 µM
68 | CCOC(=O)C1CCN(Cc2cnc(Oc3ccc(Cl)cc3C)s2)CC1 | 26 µM | > 10 µM
69 | O=C(OCn1nnc2ccccc2c1=O)c1cn(-c2ccccc2)nc1-c1cccnc1 | > 10 µM (inactive) | > 10 µM
70 | CCN(CC)c1ccc(-c2nc3cnccc3n2C)cc1 | > 10 µM (inactive) | > 10 µM
71 | CCc1n[nH]c2c1/C(=N\O)CC(C)(C)C2 | > 10 µM (inactive) | > 10 µM
72 | Cc1cc(C)nc(N/N=C/C(Cl)=C/c2ccccc2)n1 | > 10 µM (inactive) | > 10 µM
73 | Cc1cc(OCC(F)(F)C(F)(F)C(F)(F)C(F)(F)C(F)(F)C(F)F)nc(N)n1 | > 10 µM (inactive) | > 10 µM
74 | Nc1cc(N)c(OCC(F)(F)F)cc1OCC(F)(F)F | > 10 µM (inactive) | > 10 µM
75 | O=C(Nc1nnc(-c2ccc3c(c2)CCCC3)o1)c1ccc(Cl)cc1Cl | 6.32 µM (inactive) | 3.46 µM
76 | Clc1ccc(-c2n[nH]c3c2CCC3)cc1Cl | 2.65 µM (inactive) | 1.81 µM
77 | COc1ccc(/C=C2\SC(=S)N(NC(=O)c3csc4c3CCCC4)C2=O)cc1 | > 10 µM (inactive) | > 10 µM
78 | O=C(c1ccc(Cl)cc1Cl)N1CCC(c2nc3c(nnn3Cc3ccco3)c(=O)[nH]2)CC1 | > 10 µM (inactive) | > 10 µM
79 | CCN(CC)c1ccc(CN2CC=C(c3ccc(F)cc3)CC2)cc1 | 9.87 µM | 25.8 µM
80 | Cc1ccc(C)c(C(=O)NCc2ccncc2)c1 | > 10 µM (inactive) | > 10 µM
81 | Cc1cccc2cc(C#N)c(NCCCn3ccnc3)nc12 | > 10 µM (inactive) | > 10 µM
82 | O=C(NCc1ccc2c(c1)OCO2)c1ccc(-n2cnnn2)cc1 | > 10 µM (inactive) | > 10 µM
83 | Cc1ccc(N2CCN(S(=O)(=O)N3CCCCCC3)CC2)cc1Cl | > 10 µM (inactive) | > 10 µM

From PubChem BioAssay AID788 (SRMLSC, 2007)
